Measured values reported in ChEMBL document CHEMBL1201862, “PubChem BioAssay data set” (2004).
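Test compounds were applied to cells in 96-well plates for 48 hours at 5 doses. GI50 = concentration required for 50% inhibition of growth.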 The source made the active and inactive calls. Rule as the data show it: active = GI50 up to about 1.1 µM and inactive = higher.

Tests used:
Assay in all cases: inhibition of tumour cell growth, NCI panel, 48 h
786-0 = tested on: 786-0
A498 = tested on: A498
A549 = tested on: A549
ACHN = tested on: ACHN
CAKI-1 = tested on: CAKI-1
CCRF-CEM = tested on: CCRF-CEM
COLO 205 = tested on: COLO 205
DLD-1 = tested on: DLD-1
DMS-114 = tested on: DMS-114
DMS-273 = tested on: DMS-273
EKVX = tested on: EKVX
HCC 2998 = tested on: HCC 2998
HCT-116 = tested on: HCT-116
HCT-15 = tested on: HCT-15
HL-60 = tested on: HL-60
HOP-18 = tested on: HOP-18
HOP-62 = tested on: HOP-62
HOP-92 = tested on: HOP-92
HT-29 = tested on: HT-29
IGROV-1 = tested on: IGROV-1
K562 = tested on: K562
KM-20L2 = tested on: KM-20L2
KM12 = tested on: KM12
LOX IMVI = tested on: LOX IMVI
LXFL 529 = tested on: LXFL 529
M14 = tested on: M14
M19-MEL = tested on: M19-MEL
MOLT-4 = tested on: MOLT-4
Malme-3M = tested on: Malme-3M
NCI-H226 = tested on: NCI-H226
NCI-H23 = tested on: NCI-H23
NCI-H460 = tested on: NCI-H460
NCI-H522 = tested on: NCI-H522
OVCAR-3 = tested on: OVCAR-3
OVCAR-4 = tested on: OVCAR-4
OVCAR-5 = tested on: OVCAR-5
OVCAR-8 = tested on: OVCAR-8
RPMI-8226 = tested on: RPMI-8226
RXF 393 = tested on: RXF 393
SF-268 = tested on: SF-268
SF-295 = tested on: SF-295
SF-539 = tested on: SF-539
SK-MEL-28 = tested on: SK-MEL-28
SK-MEL-2 = tested on: SK-MEL-2
SK-MEL-5 = tested on: SK-MEL-5
SK-OV-3 = tested on: SK-OV-3
SN12C = tested on: SN12C
SNB-19 = tested on: SNB-19
SNB-75 = tested on: SNB-75
SNB-78 = tested on: SNB-78
SR = tested on: SR
SW-620 = tested on: SW-620
TK-10 = tested on: TK-10
U-251 = tested on: U-251
UACC-257 = tested on: UACC-257
UACC-62 = tested on: UACC-62
UO-31 = tested on: UO-31
XF498 = tested on: XF498

Measured: GI50

CC(=O)OC(C)(C)/C=C/C(=O)[C@](C)(O)[C@H]1[C@H](O)C[C@@]2(C)[C@@H]3CC=C4[C@@H](C[C@H](O)C(=O)C4(C)C)[C@]3(CO)C(=O)C[C@]12C [CUCURBITACIN A]
active: 786-0 316 nM | A498 231 nM | A549 391 nM | ACHN 262 nM | CAKI-1 243 nM | CCRF-CEM 286 nM | COLO 205 318 nM | DLD-1 337 nM | DMS-114 483 nM | DMS-273 149 nM | EKVX 364 nM | HCC 2998 350 nM | HCT-116 437 nM | HL-60 335 nM | HOP-18 148 nM | HOP-62 260 nM | HOP-92 237 nM | HT-29 308 nM | IGROV-1 634 nM | K562 445 nM | KM-20L2 303 nM | KM12 1100 nM | LOX IMVI 207 nM | LXFL 529 340 nM | M14 390 nM | M19-MEL 451 nM | Malme-3M 344 nM | NCI-H226 76.2 nM | NCI-H23 536 nM | NCI-H460 184 nM | NCI-H522 288 nM | OVCAR-3 446 nM | OVCAR-4 348 nM | OVCAR-5 955 nM | OVCAR-8 615 nM | RPMI-8226 94.2 nM | RXF 393 208 nM | SF-268 168 nM | SF-295 314 nM | SF-539 285 nM | SK-MEL-28 132 nM | SK-MEL-2 100 nM | SK-MEL-5 316 nM | SK-OV-3 391 nM | SN12C 448 nM | SNB-19 249 nM | SNB-75 131 nM | SNB-78 330 nM | SR 650 nM | SW-620 367 nM | TK-10 179 nM | U-251 233 nM | UACC-257 364 nM | UACC-62 543 nM | UO-31 317 nM | XF498 374 nM
468 nM: HCT-15
inactive: MOLT-4 3100 nM

C/C(CCn1[nH]c(=O)ccc1=O)=N\N=C(N)N
> 100000 nM: HCT-15
inactive: 786-0 > 100000 nM | A498 > 100000 nM | A549 > 100000 nM | ACHN > 100000 nM | CAKI-1 > 100000 nM | CCRF-CEM > 100000 nM | DLD-1 > 100000 nM | DMS-114 > 100000 nM | DMS-273 > 100000 nM | EKVX > 100000 nM | HCC 2998 > 100000 nM | HCT-116 > 100000 nM | HL-60 > 100000 nM | HOP-18 > 100000 nM | HOP-62 > 100000 nM | HOP-92 > 100000 nM | HT-29 > 100000 nM | IGROV-1 > 100000 nM | K562 > 100000 nM | KM-20L2 > 100000 nM | KM12 > 100000 nM | LOX IMVI > 100000 nM | LXFL 529 > 100000 nM | M14 > 100000 nM | M19-MEL > 100000 nM | MOLT-4 > 100000 nM | Malme-3M > 100000 nM | NCI-H226 > 100000 nM | NCI-H23 > 100000 nM | NCI-H460 > 100000 nM | OVCAR-3 > 100000 nM | OVCAR-4 > 100000 nM | OVCAR-5 > 100000 nM | OVCAR-8 > 100000 nM | RPMI-8226 > 100000 nM | RXF 393 > 100000 nM | SF-268 > 100000 nM | SF-295 > 100000 nM | SF-539 > 100000 nM | SK-MEL-28 > 100000 nM | SK-MEL-2 > 100000 nM | SK-MEL-5 > 100000 nM | SN12C > 100000 nM | SNB-19 > 100000 nM | SNB-75 > 100000 nM | SNB-78 > 100000 nM | SR > 100000 nM | SW-620 > 100000 nM | TK-10 > 100000 nM | UACC-257 > 100000 nM | UACC-62 > 100000 nM | UO-31 > 100000 nM | XF498 > 100000 nM
